Laboratory results from PubChem BioAssay (NCI).
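Following 48 hours of exposure in 96-well plates, responses at five concentrations were used to interpolate endpoints linearly. TGI is the concentration that stops growth completely.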

What was measured:
Assay in all cases: DTP human tumour cell line panel, 48 h
IGROV1 ovarian = tested on: IGROV1 ovarian
LOX IMVI melanoma = tested on: LOX IMVI melanoma
UACC-62 melanoma = tested on: UACC-62 melanoma
MALME-3M melanoma = tested on: MALME-3M melanoma
A549 NSCLC = tested on: A549 NSCLC
HCC-2998 colon = tested on: HCC-2998 colon
OVCAR-8 ovarian = tested on: OVCAR-8 ovarian
MOLT-4 leukemia = tested on: MOLT-4 leukemia
UACC-257 melanoma = tested on: UACC-257 melanoma
HL-60(TB) leukemia = tested on: HL-60(TB) leukemia
U251 CNS = tested on: U251 CNS
CAKI-1 renal = tested on: CAKI-1 renal
SK-OV-3 ovarian = tested on: SK-OV-3 ovarian

| SMILES | TGI (IGROV1 ovarian) | TGI (LOX IMVI melanoma) | TGI (UACC-62 melanoma) | TGI (MALME-3M melanoma) | TGI (A549 NSCLC) | TGI (HCC-2998 colon) | TGI (OVCAR-8 ovarian) | TGI (MOLT-4 leukemia) | TGI (UACC-257 melanoma) | TGI (HL-60(TB) leukemia) | TGI (U251 CNS) | TGI (CAKI-1 renal) | TGI (SK-OV-3 ovarian) |
| --- | --- | --- | --- | --- | --- | --- | --- | --- | --- | --- | --- | --- | --- |
| CCOC(=O)/C(C(N)=O)=C(\O)C(=O)/C(Br)=C(\O)c1ccccc1 | 31.1 µM | 36.3 µM | 33.3 µM | 29.2 µM | 43.5 µM | 36.6 µM | 39.5 µM | 8.33 µM | 31.8 µM | 0.248 µM | 35.3 µM | 24.6 µM | > 57.4 µM |
| COc1cc(/C=C2\CC/C(=C\c3cc(OC)c(O)c(OC)c3)C2=O)cc(OC)c1O | 3.19 µM | 6.26 µM | 3.8 µM | 1.74 µM | > 62.1 µM | 3.38 µM | > 26.1 µM | 8 µM | > 100 µM | 8.62 µM | > 49.2 µM | 7.32 µM | > 100 µM |
